Source: patent publication US12325726B2, “Organic compounds” (priority 2018, dated 2025)
pIC50: −log10 of the molar value. Read-outs that look alike come from different tables or passages of the source.

Key:
[1] = system: rat; experiment: Rotorod test (sedative/hypnotic activity, duration of action); type: in vivo
Experimental: (§1) In vitro potency [ability to inhibit the binding of [^35S]-tert-butylbicyclophosphorothionate (TBPS)], rotorod TD50's (dose at which half of animals tested fail to stay on a rotating rod for 1 minute) and the length of time before animals tested are able to pass rotorod test (duration of action) of 3α-Hydroxy-21-(1′-imidazolyl)-3β-methoxymethyl-5α-pregnan-20-one is determined. These methods for measuring in vitro and in vivo activity of compounds of the invention are fully described in U.S. Pat. No. 5,232,917, incorporated herein by reference in its entirety. The TBPS assay gives the in vitro potency of compounds whereas the rotorod assay estimates the sedative/hypnotic activity of compounds. Since the duration of action of a compound is dependent on the dose and will be prolonged at higher doses, the duration of action is measured at the lowest dose at which all of the animals failed the rotorod test. IC50 is the dose of steroid inhibiting 50% of specific binding of [^35S]-tert-butylbicyclophorothionate (TBPS). Rotorod TD50 is the does at which half of animals fail the rotorod test in rat. Duration of action, measured at the lowest dose where all animals failed the rotorod test, is the time required for all animals tested to once again pass the rotorod test.

[2] = molecular target: GABAA receptor; experiment: [35S]-TBPS binding inhibition (in vitro potency); conditions: inhibition of specific binding of [35S]-TBPS
Experimental: as §1

[3] = system: human hepatocyte; experiment: In vitro human hepatocyte stability assay; type: in vitro ADME; conditions: human hepatocytes
Experimental: The compounds of Examples 1, 2, 5 and 6 are compared in a standard in vitro human hepatocyte stability assay run in duplicate. Compounds are provided as 1 M solutions in DMSO, and concentration of test compound is determined at 0.5, 1.0 and 4.0 hours after addition of the test compound. Results are shown below as a percentage of initial concentration.

[4] = In vivo mouse pharmacokinetics, paired oral co-dosing, plasma and brain; design: species or system mice; conditions: 10 mg/kg po co-dosed; for AUC: 0.25-6 hr sampling
Experimental: In a first study, the compounds of Examples 2 to 6 are compared to the Compound of Formula A (Example 1) using standard procedures in mice. In each test, two compounds are co-dosed in a single animal and the relative pharmacokinetics in plasma and brain is determined. Each test compound is dissolved in polyethylene glycol 400 vehicle, and administered orally at a dose of 10 mg/kg. After single dose oral administration of the test compounds together, plasma and brain levels are measured at 0.25, 0.5, 1, 2, 4, and 6 hours post-dosing. The mean values for maximum concentration, time to maximum concentration, and Area Under the Curve (AUC) for both compounds are determined. The results are summarized in the tables below for various paired co-dosing experiments: […]

[5] = cited from earlier work
[6] = brain, read-out: Brain concentration
[7] = plasma, read-out: Plasma concentration

For `COC[C@@]1(O)CC[C@@]2(C)[C@@H](CC[C@@H]3[C@@H]2CC[C@]2(C)[C@@H](C(=O)Cn4ccnc4)CC[C@@H]32)C1` [Example 1, 3α-Hydroxy-21-(1′-imidazolyl)-3β-methoxymethyl-5α-pregnan-20-one], the TD50 ([1]; Rattus norvegicus, po, read-out: rotorod TD50 (po)) was 28 mg/kg, the duration of action ([1]; at lowest dose where all animals failed the rotorod test, time until all pass again) was 140 min and the pIC50 [2] was 6.86. For the same molecule, the “percentage of initial concentration” value ([3]; 0 hr) was 100%, the “percentage of initial concentration” value ([3]; 0.5 hr) was 94% and the “percentage of initial concentration” value ([3]; 1.0 hr) was 90%. For the same molecule, the “percentage of initial concentration” value ([3]; 4.0 hr) was 78%, the Cmax ([4]; brain) was 2880 ng/g and the Tmax ([4]; brain) was 1 h. The AUC ([4]; brain) was 14200 ng·h/mL, the concentration at 0.25 hr [4, 6] was 2280 ng/g and the concentration at 0.5 hr [4, 6] was 2230 ng/g. It also gave a concentration at 1 hr [4, 6] of 2880 ng/g, a concentration at 2 hr [4, 6] of 2520 ng/g and a concentration at 4 hr [4, 6] of 2360 ng/g. It also gave a concentration at 6 hr [4, 6] of 2090 ng/g, a Kp ([4]; brain/plasma, read-out: B/P AUC Ratio) of 1.2 and a Cmax ([4]; plasma) of 2580 ng/mL. For the same molecule, the Tmax ([4]; plasma) was 1 h, the AUC ([4]; plasma) was 11700 ng·h/mL and the concentration at 0.25 hr [4, 7] was 2270 ng/mL. For the same molecule, the concentration at 0.5 hr [4, 7] was 1820 ng/mL, the concentration at 1 hr [4, 7] was 2580 ng/mL and the concentration at 2 hr [4, 7] was 2100 ng/mL. The concentration at 4 hr [4, 7] was 1840 ng/mL, the concentration at 6 hr [4, 7] was 1750 ng/mL and the “AUC (0-24)” value ([5]; human, oral 1 mg fasted, mean) was 16.9 ng·h/mL. The “AUC (0-last)” value ([5]; human, oral 1 mg fasted, mean) was 22.4 ng·h/mL, the Cmax ([5]; human, oral 1 mg fasted, mean) was 1.3 ng/mL and the T1/2 ([5]; human, oral 1 mg fasted, mean) was 13.8 h. For the same molecule, the Tmax ([5]; human, oral 1 mg fasted, mean) was 3.1 h, the “AUC (0-24)” value ([5]; human, oral 3 mg fasted, mean) was 54.6 ng·h/mL and the “AUC (0-last)” value ([5]; human, oral 3 mg fasted, mean) was 65.6 ng·h/mL. The Cmax ([5]; human, oral 3 mg fasted, mean) was 5.7 ng/mL, the T1/2 ([5]; human, oral 3 mg fasted, mean) was 8.8 h and the Tmax ([5]; human, oral 3 mg fasted, mean) was 2.8 h. For the same molecule, the “AUC (0-24)” value ([5]; human, oral 10 mg fasted, mean) was 213 ng·h/mL, the “AUC (0-last)” value ([5]; human, oral 10 mg fasted, mean) was 254 ng·h/mL and the Cmax ([5]; human, oral 10 mg fasted, mean) was 26.5 ng/mL. The T1/2 ([5]; human, oral 10 mg fasted, mean) was 13.1 h, the Tmax ([5]; human, oral 10 mg fasted, mean) was 1.7 h and the “AUC (0-24)” value ([5]; human, oral 30 mg fasted, mean) was 952 ng·h/mL. The “AUC (0-last)” value ([5]; human, oral 30 mg fasted, mean) was 1117 ng·h/mL, the Cmax ([5]; human, oral 30 mg fasted, mean) was 120 ng/mL and the T1/2 ([5]; human, oral 30 mg fasted, mean) was 13.1 h. The Tmax ([5]; human, oral 30 mg fasted, mean) was 2.1 h, the “AUC (0-24)” value ([5]; human, oral 60 mg fasted, mean) was 2330 ng·h/mL and the “AUC (0-last)” value ([5]; human, oral 60 mg fasted, mean) was 2608 ng·h/mL. For the same molecule, the Cmax ([5]; human, oral 60 mg fasted, mean) was 330 ng/mL, the T1/2 ([5]; human, oral 60 mg fasted, mean) was 12.5 h and the Tmax ([5]; human, oral 60 mg fasted, mean) was 1.8 h. For the same molecule, the T1/2 ([5]; humans, oral dosing, average across five dosing groups) was “approximately 12 hours”.
